Test results taken from the supplement of paper PMC11451515.

What was measured:
Settings in all cases: 48 h
[1] = system: SEM cells; assay: AUC of viability dose-response curve (% viability x log10 dose units); higher = less sensitive
Method in brief: (§1)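 Area under the curve was integrated by trapezoidal rule from a log-logistic fit of normalised viability, with curves exceeding full viability scaled and quality-control failures removed. The fit had four parameters over log10 doses. Viability came from CellTiter-Glo One luminescence, normalised per plate to DMSO and cell-free wells, after leukemia cells adapted to each medium (500 or 1000 cells/well, 1536-well plates) were exposed to library compounds in DMSO for 48 h at 37°C. The 11 threefold doses ran from 47 μM to 0.79 nM.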

[2] = system: NOMO1; assay: as above
Method in brief: as §1

[3] = system: P12-Ichikawa; assay: as above
Method in brief: as §1

[4] = system: SEM cells; assay: cell viability relative to DMSO control; higher = less cytotoxic
Method in brief: (§2)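 Viability, reported as a per-plate percentage of DMSO wells with cell-free wells as background, came from CellTiter-Glo One luminescence. Reading took place after 48 h at 37°C. Before that, NOMO1 or SEM (500 cells/well) or P12-Ichikawa (1000 cells/well) leukemia cells, adapted for at least four passages in each medium, were seeded in 1536-well plates (5 μl) and pin-dosed with library compounds in DMSO, 47 μM to 0.79 nM over 11 threefold points.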

[5] = system: NOMO1; assay: as above
Method in brief: as §2

[6] = system: P12-Ichikawa; assay: as above
Method in brief: as §2

C[C@@H]1CC[C@@]2(CC[C@]3(C)\C(=C/C[C@@H]4[C@@]5(C)C[C@@H](O)[C@H](O)[C@@](C)(CO)[C@@H]5CC[C@@]34C)[C@@H]2[C@H]1C)C(O)=O
AUC of viability dose-response curve
Settings	[1]	[2]	[3]
HPLM + 10% dialyzed FBS	385	446	468
RPMI 5 mM glucose + 10% FBS	455	445	472
RPMI 5 mM glucose + 10% dialyzed FBS	295	468	460

cell viability [%]
Settings	[4]	[5]	[6]
HPLM + 10% dialyzed FBS, 0.000781 µM	65.5	120	109
HPLM + 10% dialyzed FBS, 0.00234 µM	75.1	127	113
HPLM + 10% dialyzed FBS, 0.00702 µM	80.4	121	108
HPLM + 10% dialyzed FBS, 0.0211 µM	86.6	109	122
HPLM + 10% dialyzed FBS, 0.0632 µM	76.5	109	121
HPLM + 10% dialyzed FBS, 0.19 µM	90.6	123	120
HPLM + 10% dialyzed FBS, 0.569 µM	99.1	123	116
HPLM + 10% dialyzed FBS, 1.71 µM	91.9	106	116
HPLM + 10% dialyzed FBS, 5.12 µM	96.5	138	122
HPLM + 10% dialyzed FBS, 15.4 µM	110	120	121
HPLM + 10% dialyzed FBS, 46.1 µM	115	130	112
RPMI 5 mM glucose + 10% FBS, 0.000781 µM	114	104	116
RPMI 5 mM glucose + 10% FBS, 0.00234 µM	110	99.9	123
RPMI 5 mM glucose + 10% FBS, 0.00702 µM	107	117	113
RPMI 5 mM glucose + 10% FBS, 0.0211 µM	120	107	116
RPMI 5 mM glucose + 10% FBS, 0.0632 µM	115	101	119
RPMI 5 mM glucose + 10% FBS, 0.19 µM	106	104	121
RPMI 5 mM glucose + 10% FBS, 0.569 µM	128	110	126
RPMI 5 mM glucose + 10% FBS, 1.71 µM	127	114	131
RPMI 5 mM glucose + 10% FBS, 5.12 µM	110	109	123
RPMI 5 mM glucose + 10% FBS, 15.4 µM	120	119	119
RPMI 5 mM glucose + 10% FBS, 46.1 µM	7.07	117	110
RPMI 5 mM glucose + 10% dialyzed FBS, 0.000781 µM	87.9	104	109
RPMI 5 mM glucose + 10% dialyzed FBS, 0.00234 µM	93.8	119	113
RPMI 5 mM glucose + 10% dialyzed FBS, 0.00702 µM	105	120	114
RPMI 5 mM glucose + 10% dialyzed FBS, 0.0211 µM	96	115	109
RPMI 5 mM glucose + 10% dialyzed FBS, 0.0632 µM	103	122	121
RPMI 5 mM glucose + 10% dialyzed FBS, 0.19 µM	76.4	111	118
RPMI 5 mM glucose + 10% dialyzed FBS, 0.569 µM	66.6	125	128
RPMI 5 mM glucose + 10% dialyzed FBS, 1.71 µM	46.1	108	121
RPMI 5 mM glucose + 10% dialyzed FBS, 5.12 µM	229	120	125
RPMI 5 mM glucose + 10% dialyzed FBS, 15.4 µM	158	114	110
RPMI 5 mM glucose + 10% dialyzed FBS, 46.1 µM	127	120	123
